Results taken from ChEMBL document CHEMBL5303573, “Mapping human microbiome drug metabolism by gut bacteria and their genes” (Nature, 2019).

Test: The drug is tested on Ruminococcus gnavus strain: ATCC29149 for biotransformation. The drug concentrations were measured before and after a 12-h incubation by liquid-chromatography-coupled mass spectrometry (LC–MS)
Details: mediterraneibacter gnavus, 2 µM

Compound | Bacterial Biotransformation
CCN(CC)CCNC(=O)c1ccc(NC(C)=O)cc1 [ACECAINIDE] | Compound NOT metabolized
CCCC(C)(COC(N)=O)COC(=O)NC(C)C (stereo not given) [CARISOPRODOL] | Compound NOT metabolized
Clc1ccc(Cn2c(CN3CCCC3)nc3ccccc32)cc1 [CLEMIZOLE] | Compound NOT metabolized
CCc1oc2ccccc2c1C(=O)c1cc(Br)c(O)c(Br)c1 [BENZBROMARONE] | Compound NOT metabolized

Test: The drug is tested on Edwardsiella tarda strain: ATCC23685 for biotransformation. The drug concentrations were measured before and after a 12-h incubation by liquid-chromatography-coupled mass spectrometry (LC–MS)
Details: 2 µM

Compound | Bacterial Biotransformation
CCN(CC)CCNC(=O)c1ccc(NC(C)=O)cc1 [ACECAINIDE] | Compound NOT metabolized
Clc1ccc(Cn2c(CN3CCCC3)nc3ccccc32)cc1 [CLEMIZOLE] | Compound NOT metabolized
CCc1oc2ccccc2c1C(=O)c1cc(Br)c(O)c(Br)c1 [BENZBROMARONE] | Compound NOT metabolized

Test: The drug is tested on Parabacteroides merdae strain: ATCC43184 for biotransformation. The drug concentrations were measured before and after a 12-h incubation by liquid-chromatography-coupled mass spectrometry (LC–MS)
Details: 2 µM

Compound | Bacterial Biotransformation
CCCC(C)(COC(N)=O)COC(=O)NC(C)C (stereo not given) [CARISOPRODOL] | Compound NOT metabolized
Clc1ccc(Cn2c(CN3CCCC3)nc3ccccc32)cc1 [CLEMIZOLE] | Compound NOT metabolized
CCc1oc2ccccc2c1C(=O)c1cc(Br)c(O)c(Br)c1 [BENZBROMARONE] | Compound NOT metabolized

Test: The drug is tested on Bacteroides pectinophilus strain: ATCC43243 for biotransformation. The drug concentrations were measured before and after a 12-h incubation by liquid-chromatography-coupled mass spectrometry (LC–MS)
Details: 2 µM

Compound | Bacterial Biotransformation
CCN(CC)CCNC(=O)c1ccc(NC(C)=O)cc1 [ACECAINIDE] | Compound NOT metabolized
CCCC(C)(COC(N)=O)COC(=O)NC(C)C (stereo not given) [CARISOPRODOL] | Compound metabolized
Clc1ccc(Cn2c(CN3CCCC3)nc3ccccc32)cc1 [CLEMIZOLE] | Compound NOT metabolized
CCc1oc2ccccc2c1C(=O)c1cc(Br)c(O)c(Br)c1 [BENZBROMARONE] | Compound NOT metabolized

Test: The drug is tested on Ruminococcus torques strain: ATCC27756 for biotransformation. The drug concentrations were measured before and after a 12-h incubation by liquid-chromatography-coupled mass spectrometry (LC–MS)
Type: ADME
Set-up: dose 2 uM, timepoint 0 vs 12 hours
Details: 2 µM

Compound | Bacterial Biotransformation
CCN(CC)CCNC(=O)c1ccc(NC(C)=O)cc1 [ACECAINIDE] | Compound NOT metabolized
CCCC(C)(COC(N)=O)COC(=O)NC(C)C (stereo not given) [CARISOPRODOL] | Compound NOT metabolized
Clc1ccc(Cn2c(CN3CCCC3)nc3ccccc32)cc1 [CLEMIZOLE] | Compound NOT metabolized

Test: The drug is tested on Enterococcus faecalis strain: V583 for biotransformation. The drug concentrations were measured before and after a 12-h incubation by liquid-chromatography-coupled mass spectrometry (LC–MS)
Details: 2 µM

Compound | Bacterial Biotransformation
CCN(CC)CCNC(=O)c1ccc(NC(C)=O)cc1 [ACECAINIDE] | Compound NOT metabolized
CCCC(C)(COC(N)=O)COC(=O)NC(C)C (stereo not given) [CARISOPRODOL] | Compound NOT metabolized
Clc1ccc(Cn2c(CN3CCCC3)nc3ccccc32)cc1 [CLEMIZOLE] | Compound NOT metabolized
CCc1oc2ccccc2c1C(=O)c1cc(Br)c(O)c(Br)c1 [BENZBROMARONE] | Compound NOT metabolized

Test: The drug is tested on Providencia stuartii strain: ATCC25827 for biotransformation. The drug concentrations were measured before and after a 12-h incubation by liquid-chromatography-coupled mass spectrometry (LC–MS)
Details: 2 µM

Compound | Bacterial Biotransformation
CCCC(C)(COC(N)=O)COC(=O)NC(C)C (stereo not given) [CARISOPRODOL] | Compound NOT metabolized
Clc1ccc(Cn2c(CN3CCCC3)nc3ccccc32)cc1 [CLEMIZOLE] | Compound NOT metabolized
CCc1oc2ccccc2c1C(=O)c1cc(Br)c(O)c(Br)c1 [BENZBROMARONE] | Compound NOT metabolized

Test: The drug is tested on Anaerococcus hydrogenalis strain: DSM7454 for biotransformation. The drug concentrations were measured before and after a 12-h incubation by liquid-chromatography-coupled mass spectrometry (LC–MS)
Details: 2 µM

Compound | Bacterial Biotransformation
CCN(CC)CCNC(=O)c1ccc(NC(C)=O)cc1 [ACECAINIDE] | Compound NOT metabolized
Clc1ccc(Cn2c(CN3CCCC3)nc3ccccc32)cc1 [CLEMIZOLE] | Compound NOT metabolized
CCc1oc2ccccc2c1C(=O)c1cc(Br)c(O)c(Br)c1 [BENZBROMARONE] | Compound NOT metabolized

Test: The drug is tested on Bacteroides ovatus strain: ATCC8483 for biotransformation. The drug concentrations were measured before and after a 12-h incubation by liquid-chromatography-coupled mass spectrometry (LC–MS)
Details: 2 µM

Compound | Bacterial Biotransformation
Clc1ccc(Cn2c(CN3CCCC3)nc3ccccc32)cc1 [CLEMIZOLE] | Compound NOT metabolized
CCc1oc2ccccc2c1C(=O)c1cc(Br)c(O)c(Br)c1 [BENZBROMARONE] | Compound NOT metabolized

Details: bifidobacterium adolescentis, 12 h, 2 µM
Description: The drug is tested on Bifidobacterium adolescentis strain: ATCC 15703 for biotransformation. The drug concentrations were measured before and after a 12-h incubation by liquid-chromatography-coupled mass spectrometry (LC–MS)

Compound | Bacterial Biotransformation
CCN(CC)CCNC(=O)c1ccc(NC(C)=O)cc1 [ACECAINIDE] | Compound NOT metabolized
Clc1ccc(Cn2c(CN3CCCC3)nc3ccccc32)cc1 [CLEMIZOLE] | Compound NOT metabolized
CCc1oc2ccccc2c1C(=O)c1cc(Br)c(O)c(Br)c1 [BENZBROMARONE] | Compound NOT metabolized

Test: The drug is tested on Bacteroides coprophilus strain: DSM18228 for biotransformation. The drug concentrations were measured before and after a 12-h incubation by liquid-chromatography-coupled mass spectrometry (LC–MS)
Details: 2 µM

Compound | Bacterial Biotransformation
CCN(CC)CCNC(=O)c1ccc(NC(C)=O)cc1 [ACECAINIDE] | Compound NOT metabolized
CCCC(C)(COC(N)=O)COC(=O)NC(C)C (stereo not given) [CARISOPRODOL] | Compound metabolized
CCc1oc2ccccc2c1C(=O)c1cc(Br)c(O)c(Br)c1 [BENZBROMARONE] | Compound NOT metabolized

Test: The drug is tested on Bacteroides dorei strain: DSM17855 for biotransformation. The drug concentrations were measured before and after a 12-h incubation by liquid-chromatography-coupled mass spectrometry (LC–MS)
Details: phocaeicola dorei, 2 µM

Compound | Bacterial Biotransformation
CCCC(C)(COC(N)=O)COC(=O)NC(C)C (stereo not given) [CARISOPRODOL] | Compound metabolized

Details: bacteroides fragilis, 12 h, 2 µM
Description: The drug is tested on Bacteroides fragilis strain: NCTC 9343 for biotransformation. The drug concentrations were measured before and after a 12-h incubation by liquid-chromatography-coupled mass spectrometry (LC–MS)

Compound | Bacterial Biotransformation
CCCC(C)(COC(N)=O)COC(=O)NC(C)C (stereo not given) [CARISOPRODOL] | Compound metabolized
CCc1oc2ccccc2c1C(=O)c1cc(Br)c(O)c(Br)c1 [BENZBROMARONE] | Compound NOT metabolized

Test: The drug is tested on Anaerotruncus colihominis strain: DSM17241 for biotransformation. The drug concentrations were measured before and after a 12-h incubation by liquid-chromatography-coupled mass spectrometry (LC–MS)
Details: 2 µM

Compound | Bacterial Biotransformation
CCN(CC)CCNC(=O)c1ccc(NC(C)=O)cc1 [ACECAINIDE] | Compound NOT metabolized
CCc1oc2ccccc2c1C(=O)c1cc(Br)c(O)c(Br)c1 [BENZBROMARONE] | Compound NOT metabolized

Test: The drug is tested on Eubacterium rectale strain: ATCC33656 for biotransformation. The drug concentrations were measured before and after a 12-h incubation by liquid-chromatography-coupled mass spectrometry (LC–MS)
Details: agathobacter rectalis, 2 µM

Compound | Bacterial Biotransformation
CCN(CC)CCNC(=O)c1ccc(NC(C)=O)cc1 [ACECAINIDE] | Compound NOT metabolized
CCCC(C)(COC(N)=O)COC(=O)NC(C)C (stereo not given) [CARISOPRODOL] | Compound NOT metabolized
Clc1ccc(Cn2c(CN3CCCC3)nc3ccccc32)cc1 [CLEMIZOLE] | Compound NOT metabolized
CCc1oc2ccccc2c1C(=O)c1cc(Br)c(O)c(Br)c1 [BENZBROMARONE] | Compound NOT metabolized

Details: limosilactobacillus reuteri cf48-3a, 12 h, 2 µM
Description: The drug is tested on Lactobacillus reuteri CF48-3A strain: BEI HM-102 for biotransformation. The drug concentrations were measured before and after a 12-h incubation by liquid-chromatography-coupled mass spectrometry (LC–MS)

Compound | Bacterial Biotransformation
Clc1ccc(Cn2c(CN3CCCC3)nc3ccccc32)cc1 [CLEMIZOLE] | Compound NOT metabolized

Test: The drug is tested on Alistipes indistinctus strain: DSM22520 for biotransformation. The drug concentrations were measured before and after a 12-h incubation by liquid-chromatography-coupled mass spectrometry (LC–MS)
Details: 2 µM

Compound | Bacterial Biotransformation
CCN(CC)CCNC(=O)c1ccc(NC(C)=O)cc1 [ACECAINIDE] | Compound NOT metabolized
CCCC(C)(COC(N)=O)COC(=O)NC(C)C (stereo not given) [CARISOPRODOL] | Compound NOT metabolized
Clc1ccc(Cn2c(CN3CCCC3)nc3ccccc32)cc1 [CLEMIZOLE] | Compound NOT metabolized
CCc1oc2ccccc2c1C(=O)c1cc(Br)c(O)c(Br)c1 [BENZBROMARONE] | Compound NOT metabolized

Test: The drug is tested on Bacteroides uniformis strain: ATCC8492 for biotransformation. The drug concentrations were measured before and after a 12-h incubation by liquid-chromatography-coupled mass spectrometry (LC–MS)
Details: 2 µM

Compound | Bacterial Biotransformation
CCN(CC)CCNC(=O)c1ccc(NC(C)=O)cc1 [ACECAINIDE] | Compound metabolized
CCCC(C)(COC(N)=O)COC(=O)NC(C)C (stereo not given) [CARISOPRODOL] | Compound metabolized
Clc1ccc(Cn2c(CN3CCCC3)nc3ccccc32)cc1 [CLEMIZOLE] | Compound NOT metabolized
CCc1oc2ccccc2c1C(=O)c1cc(Br)c(O)c(Br)c1 [BENZBROMARONE] | Compound NOT metabolized

Details: parabacteroides johnsonii, 12 h, 2 µM
Description: The drug is tested on Parabacteroides johnsonii strain: DSM18315 for biotransformation. The drug concentrations were measured before and after a 12-h incubation by liquid-chromatography-coupled mass spectrometry (LC–MS)

Compound | Bacterial Biotransformation
CCN(CC)CCNC(=O)c1ccc(NC(C)=O)cc1 [ACECAINIDE] | Compound NOT metabolized
Clc1ccc(Cn2c(CN3CCCC3)nc3ccccc32)cc1 [CLEMIZOLE] | Compound NOT metabolized
CCc1oc2ccccc2c1C(=O)c1cc(Br)c(O)c(Br)c1 [BENZBROMARONE] | Compound NOT metabolized

Test: The drug is tested on Clostridium ramosum strain: DSM1402 for biotransformation. The drug concentrations were measured before and after a 12-h incubation by liquid-chromatography-coupled mass spectrometry (LC–MS)
Details: thomasclavelia ramosa, 2 µM

Compound | Bacterial Biotransformation
CCN(CC)CCNC(=O)c1ccc(NC(C)=O)cc1 [ACECAINIDE] | Compound NOT metabolized
CCCC(C)(COC(N)=O)COC(=O)NC(C)C (stereo not given) [CARISOPRODOL] | Compound NOT metabolized
Clc1ccc(Cn2c(CN3CCCC3)nc3ccccc32)cc1 [CLEMIZOLE] | Compound NOT metabolized
CCc1oc2ccccc2c1C(=O)c1cc(Br)c(O)c(Br)c1 [BENZBROMARONE] | Compound NOT metabolized
